Results from the supplement of paper PMC10307832.

Columns and labels:
Assay in all cases: relative viability (nuclei count vs DMSO), 5 days (fraction); higher = more cells survive
[1] = test system: NCI-H1395
Procedure, shortened: (§1)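 One day after seeding in 1536-well plates, lung cancer cell lines were dosed by pin tool. Dosing was either single-drug or a fixed anchor-drug dose plus five library-drug doses (not always all listed) in √10 steps. After 5 days, nuclei were stained in one fix-and-stain step and counted on 4× images, and relative viability is the nuclei count of treated wells over that of vehicle wells, given as the median of duplicate plates.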

[2] = test system: HOP-62
Procedure, shortened: as §1

[3] = test system: NCI-H838
Procedure, shortened: as §1

[4] = test system: NCI-H1793
Procedure, shortened: as §1

[5] = test system: NCI-H322M
Procedure, shortened: as §1

[6] = test system: NCI-H2009
Procedure, shortened: as §1

[7] = test system: UMC-11
Procedure, shortened: as §1

[8] = test system: PC-14
Procedure, shortened: as §1

[9] = test system: NCI-H647
Procedure, shortened: as §1

[10] = test system: NCI-H2228
Procedure, shortened: as §1

[11] = test system: NCI-H358
Procedure, shortened: as §1

[12] = test system: NCI-H1755
Procedure, shortened: as §1

[13] = test system: NCI-H1355
Procedure, shortened: as §1

[14] = test system: NCI-H1993
Procedure, shortened: as §1

[15] = test system: COR-L 105
Procedure, shortened: as §1

[16] = test system: COR-L23
Procedure, shortened: as §1

[17] = test system: SK-MES-1
Procedure, shortened: as §1

[18] = test system: NCI-H1734
Procedure, shortened: as §1

[19] = test system: NCI-H2347
Procedure, shortened: as §1

[20] = test system: NCI-H2170
Procedure, shortened: as §1

[21] = test system: HARA
Procedure, shortened: as §1

[22] = test system: EKVX
Procedure, shortened: as §1

## CC(C)Oc1cc(Nc2nc(N[C@@H](C)c3ccc(F)cn3)ncc2Cl)n[nH]1 [AZ23] + Cc1nc(NC(=O)N2CCC[C@H]2C(N)=O)sc1-c1ccnc(C(C)(C)C(F)(F)F)c1 [Alpelisib] (partner 2 µM)
[1]; first compound 0.03162 µM
  relative viability: 1.06
[1]; first compound 0.3162 µM
  relative viability: 1.08
[2]; first compound 0.01 µM
  relative viability: 1.08
[2]; first compound 0.03162 µM
  relative viability: 0.973
[2]; first compound 0.3162 µM
  relative viability: 0.97
[3]; first compound 0.01 µM
  relative viability: 0.968
[3]; first compound 0.03162 µM
  relative viability: 1.25
[3]; first compound 0.3162 µM
  relative viability: 0.998
[4]; first compound 0.01 µM
  relative viability: 0.83
[4]; first compound 0.03162 µM
  relative viability: 0.787
[4]; first compound 0.3162 µM
  relative viability: 0.643
[5]; first compound 0.01 µM
  relative viability: 0.774
[5]; first compound 0.03162 µM
  relative viability: 0.774
[5]; first compound 0.3162 µM
  relative viability: 0.823
[6]; first compound 0.01 µM
  relative viability: 1.13
[6]; first compound 0.03162 µM
  relative viability: 1.23
[6]; first compound 0.3162 µM
  relative viability: 1.19
[7]; first compound 0.01 µM
  relative viability: 0.883
[7]; first compound 0.03162 µM
  relative viability: 1.07
[7]; first compound 0.3162 µM
  relative viability: 0.943
[8]; first compound 0.01 µM
  relative viability: 0.897
[8]; first compound 0.03162 µM
  relative viability: 1.13
[8]; first compound 0.3162 µM
  relative viability: 1.06
[9]; first compound 0.01 µM
  relative viability: 1.63
[9]; first compound 0.03162 µM
  relative viability: 1.37
[9]; first compound 0.3162 µM
  relative viability: 1.17
[10]; first compound 0.01 µM
  relative viability: 0.88
[10]; first compound 0.03162 µM
  relative viability: 1.01
[10]; first compound 0.3162 µM
  relative viability: 0.67
[11]; first compound 0.01 µM
  relative viability: 0.937
[11]; first compound 0.03162 µM
  relative viability: 0.855
[11]; first compound 0.3162 µM
  relative viability: 0.928
[12]; first compound 0.01 µM
  relative viability: 1.12
[12]; first compound 0.03162 µM
  relative viability: 1.05
[12]; first compound 0.3162 µM
  relative viability: 1.09
[13]; first compound 0.01 µM
  relative viability: 0.876
[13]; first compound 0.03162 µM
  relative viability: 0.873
[13]; first compound 0.3162 µM
  relative viability: 0.782
[14]; first compound 0.01 µM
  relative viability: 0.597
[14]; first compound 0.3162 µM
  relative viability: 0.659
[15]; first compound 0.01 µM
  relative viability: 0.676
[15]; first compound 0.03162 µM
  relative viability: 1.33
[15]; first compound 0.3162 µM
  relative viability: 0.813
[16]; first compound 0.01 µM
  relative viability: 0.815
[16]; first compound 0.03162 µM
  relative viability: 0.921
[16]; first compound 0.3162 µM
  relative viability: 0.821
[17]; first compound 0.01 µM
  relative viability: 1.01
[17]; first compound 0.03162 µM
  relative viability: 0.997
[17]; first compound 0.3162 µM
  relative viability: 1.06
[18]; first compound 0.01 µM
  relative viability: 0.683
[18]; first compound 0.03162 µM
  relative viability: 0.772
[18]; first compound 0.3162 µM
  relative viability: 0.649
[19]; first compound 0.01 µM
  relative viability: 1.06
[19]; first compound 0.03162 µM
  relative viability: 1.09
[19]; first compound 0.3162 µM
  relative viability: 1.08
[20]; first compound 0.01 µM
  relative viability: 0.87
[20]; first compound 0.03162 µM
  relative viability: 0.887
[20]; first compound 0.3162 µM
  relative viability: 0.831
[21]; first compound 0.01 µM
  relative viability: 1.18
[21]; first compound 0.03162 µM
  relative viability: 0.847
[21]; first compound 0.3162 µM
  relative viability: 0.774
[22]; first compound 0.01 µM
  relative viability: 0.923
[22]; first compound 0.03162 µM
  relative viability: 1.07
[22]; first compound 0.3162 µM
  relative viability: 0.978

## COc1cc(N2CCC(C(N)=O)CC2)ccc1Nc1nc(N)c(Cl)c(Nc2ccccc2S(=O)(=O)C(C)C)n1 [HG-5-88-01] + CS(=O)(=O)CCNCc1ccc(-c2ccc3ncnc(Nc4ccc(OCc5cccc(F)c5)c(Cl)c4)c3c2)o1 [Lapatinib] (partner 2 µM)
[1]; first compound 0.04 µM
  relative viability: 0.933
[1]; first compound 0.1265 µM
  relative viability: 1
[1]; first compound 0.4 µM
  relative viability: 1.12
[1]; first compound 1.265 µM
  relative viability: 1.05
[1]; first compound 4 µM
  relative viability: 0.83
[2]; first compound 0.04 µM
  relative viability: 1.1
[2]; first compound 0.1265 µM
  relative viability: 1.1
[2]; first compound 0.4 µM
  relative viability: 1.05
[2]; first compound 1.265 µM
  relative viability: 1.2
[2]; first compound 4 µM
  relative viability: 0.893
[3]; first compound 0.04 µM
  relative viability: 0.906
[3]; first compound 0.1265 µM
  relative viability: 0.952
[3]; first compound 0.4 µM
  relative viability: 0.797
[3]; first compound 1.265 µM
  relative viability: 0.708
[3]; first compound 4 µM
  relative viability: 0.498
[4]; first compound 0.1265 µM
  relative viability: 0.655
[4]; first compound 0.4 µM
  relative viability: 0.607
[4]; first compound 1.265 µM
  relative viability: 0.762
[4]; first compound 4 µM
  relative viability: 0.77
[5]; first compound 0.04 µM
  relative viability: 0.583
[5]; first compound 0.1265 µM
  relative viability: 0.428
[5]; first compound 0.4 µM
  relative viability: 0.492
[5]; first compound 1.265 µM
  relative viability: 0.501
[5]; first compound 4 µM
  relative viability: 0.485
[6]; first compound 0.04 µM
  relative viability: 0.943
[6]; first compound 0.1265 µM
  relative viability: 1.01
[6]; first compound 0.4 µM
  relative viability: 0.843
[6]; first compound 1.265 µM
  relative viability: 0.939
[6]; first compound 4 µM
  relative viability: 0.433
[7]; first compound 0.04 µM
  relative viability: 0.84
[7]; first compound 0.1265 µM
  relative viability: 1.13
[7]; first compound 0.4 µM
  relative viability: 0.837
[7]; first compound 1.265 µM
  relative viability: 0.927
[7]; first compound 4 µM
  relative viability: 0.632
[8]; first compound 0.04 µM
  relative viability: 0.358
[8]; first compound 0.1265 µM
  relative viability: 0.307
[8]; first compound 0.4 µM
  relative viability: 0.242
[8]; first compound 1.265 µM
  relative viability: 0.267
[8]; first compound 4 µM
  relative viability: 0.25
[9]; first compound 0.04 µM
  relative viability: 0.929
[9]; first compound 0.1265 µM
  relative viability: 1.23
[9]; first compound 1.265 µM
  relative viability: 1.11
[9]; first compound 4 µM
  relative viability: 1.21
[10]; first compound 0.04 µM
  relative viability: 0.322
[10]; first compound 0.1265 µM
  relative viability: 0.264
[10]; first compound 0.4 µM
  relative viability: 0.394
[10]; first compound 1.265 µM
  relative viability: 0.409
[10]; first compound 4 µM
  relative viability: 0.356
[11]; first compound 0.04 µM
  relative viability: 0.451
[11]; first compound 0.1265 µM
  relative viability: 0.378
[11]; first compound 0.4 µM
  relative viability: 0.307
[11]; first compound 1.265 µM
  relative viability: 0.256
[11]; first compound 4 µM
  relative viability: 0.304
[12]; first compound 0.1265 µM
  relative viability: 1.04
[12]; first compound 0.4 µM
  relative viability: 0.986
[12]; first compound 1.265 µM
  relative viability: 1.02
[12]; first compound 4 µM
  relative viability: 1.15
[13]; first compound 0.04 µM
  relative viability: 1.08
[13]; first compound 0.1265 µM
  relative viability: 1.04
[13]; first compound 0.4 µM
  relative viability: 0.832
[13]; first compound 1.265 µM
  relative viability: 0.917
[13]; first compound 4 µM
  relative viability: 0.623
[14]; first compound 0.04 µM
  relative viability: 0.713
[14]; first compound 0.1265 µM
  relative viability: 0.853
[14]; first compound 0.4 µM
  relative viability: 0.843
[14]; first compound 1.265 µM
  relative viability: 0.79
[14]; first compound 4 µM
  relative viability: 0.788
[15]; first compound 0.04 µM
  relative viability: 0.346
[15]; first compound 0.1265 µM
  relative viability: 0.375
[15]; first compound 0.4 µM
  relative viability: 0.329
[15]; first compound 1.265 µM
  relative viability: 0.336
[15]; first compound 4 µM
  relative viability: 0.334
[16]; first compound 0.04 µM
  relative viability: 0.998
[16]; first compound 0.1265 µM
  relative viability: 1.07
[16]; first compound 0.4 µM
  relative viability: 0.957
[16]; first compound 1.265 µM
  relative viability: 0.921
[16]; first compound 4 µM
  relative viability: 0.629
[17]; first compound 0.04 µM
  relative viability: 0.442
[17]; first compound 0.1265 µM
  relative viability: 0.453
[17]; first compound 0.4 µM
  relative viability: 0.407
[17]; first compound 1.265 µM
  relative viability: 0.477
[17]; first compound 4 µM
  relative viability: 0.469
[18]; first compound 0.04 µM
  relative viability: 1
[18]; first compound 0.1265 µM
  relative viability: 1.08
[18]; first compound 0.4 µM
  relative viability: 1.02
[18]; first compound 1.265 µM
  relative viability: 0.982
[18]; first compound 4 µM
  relative viability: 0.969
[19]; first compound 0.04 µM
  relative viability: 1.02
[19]; first compound 0.1265 µM
  relative viability: 0.947
[19]; first compound 0.4 µM
  relative viability: 0.896
[19]; first compound 1.265 µM
  relative viability: 1.01
[19]; first compound 4 µM
  relative viability: 0.887
[20]; first compound 0.04 µM
  relative viability: 0.247
[20]; first compound 0.1265 µM
  relative viability: 0.275
[20]; first compound 0.4 µM
  relative viability: 0.251
[20]; first compound 1.265 µM
  relative viability: 0.267
[20]; first compound 4 µM
  relative viability: 0.251
[21]; first compound 0.04 µM
  relative viability: 0.754
[21]; first compound 0.1265 µM
  relative viability: 0.528
[21]; first compound 0.4 µM
  relative viability: 0.671
[21]; first compound 1.265 µM
  relative viability: 0.71
[21]; first compound 4 µM
  relative viability: 0.31
[22]; first compound 0.04 µM
  relative viability: 0.212
[22]; first compound 0.1265 µM
  relative viability: 0.215
[22]; first compound 0.4 µM
  relative viability: 0.184
[22]; first compound 4 µM
  relative viability: 0.15
